Experimental data published in US11987586B1 (TAKEDA PHARMACEUTICAL COMPANY LIMITED, priority 2022, dated 2024).

target: T1, human OX2 receptor (Homo sapiens, UniProt O43614); assay: Measurement of orexin type 2 receptor agonist activity (calcium fluorescence, Fluo-4, FDSS); format: cell-based; conditions: 3 uM test compound; CHO cells expressing human OX2 receptor; DMSO = 0%, 10 nM orexin A (human) = 100%
T1 construct: expressed in transfected cells
T1 sequence (O43614 1-444): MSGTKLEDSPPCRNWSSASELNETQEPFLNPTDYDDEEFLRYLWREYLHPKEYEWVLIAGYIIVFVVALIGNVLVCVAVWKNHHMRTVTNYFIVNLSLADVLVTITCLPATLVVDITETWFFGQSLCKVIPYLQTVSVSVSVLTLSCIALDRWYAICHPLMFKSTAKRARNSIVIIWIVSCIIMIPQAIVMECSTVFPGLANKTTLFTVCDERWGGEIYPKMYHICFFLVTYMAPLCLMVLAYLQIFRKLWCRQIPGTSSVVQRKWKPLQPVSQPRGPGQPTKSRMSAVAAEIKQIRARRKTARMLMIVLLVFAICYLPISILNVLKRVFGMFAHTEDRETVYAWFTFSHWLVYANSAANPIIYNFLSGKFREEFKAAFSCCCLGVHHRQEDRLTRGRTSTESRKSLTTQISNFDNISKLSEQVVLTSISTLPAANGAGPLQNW
How it was run: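 CHO-K1 cells stably expressing human OX2 receptor (residues 1-444) were loaded with Fluo-4 AM plus probenecid. Calcium fluorescence after compound addition was recorded for 1 min 40 s. Activity (%) was scaled between DMSO (0%) and 10 nM orexin A final (100%).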

| SMILES | OX2R agonist activity (3 uM, %) |
| --- | --- |
| CCS(=O)(=O)N[C@@H]1Cn2c(cn(-c3noc4cc(COC)c(F)c(-c5c(F)cccc5F)c34)c2=O)C1(F)F [Example 212, N-{(6R)-2-[4-(2,6-difluorophenyl)-5-fluoro-6-(methoxymethyl)-1,2-benzoxazol-3-yl]-7,7-difluoro-3-oxo-2,5,6,7-tetrahydro-3H-pyrrolo[1,2-c]imidazol-6-yl}ethanesulfonamide] | 100% |
| COCc1cc(-c2c(F)cccc2F)c2c(N3CC[C@H]4N(C[C@@H](NS(C)(=O)=O)C4(F)F)C3=O)noc2c1 [Example 215, N-{(4aR,6R)-2-[4-(2,6-difluorophenyl)-6-(methoxymethyl)-1,2-benzoxazol-3-yl]-5,5-difluoro-1-oxooctahydropyrrolo[1,2-c]pyrimidin-6-yl}methanesulfonamide] | 99% |
| CCOc1cc(-c2c(F)cc(F)cc2F)c2c(N3CC[C@H]4N(C[C@@H](NS(C)(=O)=O)C4(F)F)C3=O)noc2c1 [Example 217, N-{(4aR,6R)-2-[6-ethoxy-4-(2,4,6-trifluorophenyl)-1,2-benzoxazol-3-yl]-5,5-difluoro-1-oxooctahydropyrrolo[1,2-c]pyrimidin-6-yl}methanesulfonamide] | 104% |
| Cc1cc2onc(-n3cc4n(c3=O)C[C@@H](NS(=O)(=O)N(C)C)C4(F)F)c2c(-c2c(F)cc(F)cc2F)n1 [Example 218, N′-{(6R)-7,7-difluoro-2-[6-methyl-4-(2,4,6-trifluorophenyl)[1,2]oxazolo[4,5-c]pyridin-3-yl]-3-oxo-2,5,6,7-tetrahydro-3H-pyrrolo[1,2-c]imidazol-6-yl}-N,N-dimethylsulfuric diamide] | 108% |
| Cc1cc2onc(-n3cc4n(c3=O)C[C@@H](NS(=O)(=O)C3CC3)C4(F)F)c2c(-c2c(F)cc(F)cc2F)n1 [Example 219, N-{(6R)-7,7-difluoro-2-[6-methyl-4-(2,4,6-trifluorophenyl)[1,2]oxazolo[4,5-c]pyridin-3-yl]-3-oxo-2,5,6,7-tetrahydro-3H-pyrrolo[1,2-c]imidazol-6-yl}cyclopropanesulfonamide] | 103% |
| CCS(=O)(=O)N[C@@H]1CN2C(=O)N(c3noc4cc(C)nc(-c5c(F)cc(F)cc5F)c34)CC[C@@H]2C1(F)F [Example 220, N-{(4aR,6R)-5,5-difluoro-2-[6-methyl-4-(2,4,6-trifluorophenyl)[1,2]oxazolo[4,5-c]pyridin-3-yl]-1-oxooctahydropyrrolo[1,2-c]pyrimidin-6-yl}ethanesulfonamide] | 112% |
| CCS(=O)(=O)N[C@@H]1CN2C(=O)N(c3noc4cc(COC)c(F)c(-c5c(F)cccc5F)c34)CC[C@@H]2C1(F)F [Example 221, N-{(4aR,6R)-2-[4-(2,6-difluorophenyl)-5-fluoro-6-(methoxymethyl)-1,2-benzoxazol-3-yl]-5,5-difluoro-1-oxooctahydropyrrolo[1,2-c]pyrimidin-6-yl}ethanesulfonamide] | 104% |
| COCc1cc(-c2c(F)cc(F)cc2F)c2c(N3CC[C@H]4N(C[C@@H](NS(=O)(=O)C5CC5)C4(F)F)C3=O)noc2c1 [Example 222, N-{(4aR,6R)-5,5-difluoro-2-[6-(methoxymethyl)-4-(2,4,6-trifluorophenyl)-1,2-benzoxazol-3-yl]-1-oxooctahydropyrrolo[1,2-c]pyrimidin-6-yl}cyclopropanesulfonamide] | 107% |
| CS(=O)(=O)N[C@@H]1CN2C(=O)N(c3noc4cccc(-c5ccccc5)c34)CC[C@@H]2C1(F)F [Example 223, N-[(4aR,6R)-5,5-difluoro-1-oxo-2-(4-phenyl-1,2-benzoxazol-3-yl)octahydropyrrolo[1,2-c]pyrimidin-6-yl]methanesulfonamide] | 104% |
| CS(=O)(=O)N[C@@H]1CN2C(=O)N(c3noc4cc(Br)cc(-c5c(F)cccc5F)c34)CC[C@@H]2C1(F)F [Example 224, N-{(4aR,6R)-2-[6-bromo-4-(2,6-difluorophenyl)-1,2-benzoxazol-3-yl]-5,5-difluoro-1-oxooctahydropyrrolo[1,2-c]pyrimidin-6-yl}methanesulfonamide] | 109% |
| CS(=O)(=O)N[C@@H]1CN2C(=O)N(c3noc4cc(C(F)(F)F)cc(-c5c(F)cc(F)cc5F)c34)CC[C@@H]2C1(F)F [Example 225, N-{(4aR,6R)-5,5-difluoro-1-oxo-2-[6-(trifluoromethyl)-4-(2,4,6-trifluorophenyl)-1,2-benzoxazol-3-yl]octahydropyrrolo[1,2-c]pyrimidin-6-yl}methanesulfonamide] | 106% |
| COCc1cc2onc(-n3cc4n(c3=O)C[C@@H](NS(C)(=O)=O)C4(F)F)c2c(-c2c(F)cccc2F)c1F [Example 226, N-{(6R)-2-[4-(2,6-difluorophenyl)-5-fluoro-6-(methoxymethyl)-1,2-benzoxazol-3-yl]-7,7-difluoro-3-oxo-2,5,6,7-tetrahydro-3H-pyrrolo[1,2-c]imidazol-6-yl}methanesulfonamide] | 93% |
| COCc1cc2onc(N3CC[C@H]4N(C[C@@H](NS(C)(=O)=O)C4(F)F)C3=O)c2c(-c2c(F)cc(F)cc2F)c1F [Example 227, N-{(4aR,6R)-5,5-difluoro-2-[5-fluoro-6-(methoxymethyl)-4-(2,4,6-trifluorophenyl)-1,2-benzoxazol-3-yl]-1-oxooctahydropyrrolo[1,2-c]pyrimidin-6-yl}methanesulfonamide] | 98% |
| CCOc1cc2onc(N3CC[C@H]4N(C[C@@H](NS(C)(=O)=O)C4(F)F)C3=O)c2c(-c2c(F)cccc2F)c1F [Example 228, N-{(4aR,6R)-2-[4-(2,6-difluorophenyl)-6-ethoxy-5-fluoro-1,2-benzoxazol-3-yl]-5,5-difluoro-1-oxooctahydropyrrolo[1,2-c]pyrimidin-6-yl}methanesulfonamide] | 102% |
| Cc1cc2onc(-n3cc4n(c3=O)C[C@@H](NS(C)(=O)=O)C4(F)F)c2c(-c2c(F)cc(F)cc2F)n1 [Example 229, N-{(6R)-7,7-difluoro-2-[6-methyl-4-(2,4,6-trifluorophenyl)[1,2]oxazolo[4,5-c]pyridin-3-yl]-3-oxo-2,5,6,7-tetrahydro-3H-pyrrolo[1,2-c]imidazol-6-yl}methanesulfonamide] | 113% |
| CCc1cc(-c2c(F)cc(F)cc2F)c2c(-n3cc4n(c3=O)C[C@@H](NS(C)(=O)=O)C4(F)F)noc2n1 [Example 230, N-{(6R)-2-[6-ethyl-4-(2,4,6-trifluorophenyl)[1,2]oxazolo[5,4-b]pyridin-3-yl]-7,7-difluoro-3-oxo-2,5,6,7-tetrahydro-3H-pyrrolo[1,2-c]imidazol-6-yl}methanesulfonamide] | 111% |
| CCS(=O)(=O)N[C@@H]1CN2C(=O)N(c3noc4cc(COC)cc(-c5c(F)cc(F)cc5F)c34)CC[C@@H]2C1(F)F [Example 232, N-{(4aR,6R)-5,5-difluoro-2-[6-(methoxymethyl)-4-(2,4,6-trifluorophenyl)-1,2-benzoxazol-3-yl]-1-oxooctahydropyrrolo[1,2-c]pyrimidin-6-yl}ethanesulfonamide] | 107% |
| Cc1cc2onc(N3CC[C@H]4N(C[C@@H](NS(=O)(=O)C5CC5)C4(F)F)C3=O)c2c(-c2c(F)cc(F)cc2F)n1 [Example 233, N-{(4aR,6R)-5,5-difluoro-2-[6-methyl-4-(2,4,6-trifluorophenyl)[1,2]oxazolo[4,5-c]pyridin-3-yl]-1-oxooctahydropyrrolo[1,2-c]pyrimidin-6-yl}cyclopropanesulfonamide] | 109% |
| O=C1N(c2noc3ccc(F)c(-c4c(F)cc(F)cc4F)c23)CC[C@H]2N1C[C@@H](NS(=O)(=O)C1CC1)C2(F)F [Example 234, N-{(4aR,6R)-5,5-difluoro-2-[5-fluoro-4-(2,4,6-trifluorophenyl)-1,2-benzoxazol-3-yl]-1-oxooctahydropyrrolo[1,2-c]pyrimidin-6-yl}cyclopropanesulfonamide] | 111% |
| CCS(=O)(=O)N[C@@H]1CN2C(=O)N(c3noc4nccc(-c5c(F)cc(F)cc5F)c34)CC[C@@H]2C1(F)F [Example 235, N-{(4aR,6R)-5,5-difluoro-1-oxo-2-[4-(2,4,6-trifluorophenyl)[1,2]oxazolo[5,4-b]pyridin-3-yl]octahydropyrrolo[1,2-c]pyrimidin-6-yl}ethanesulfonamide] | 113% |
| O=C1N(c2noc3cc(F)cc(-c4c(F)cc(F)cc4F)c23)CC[C@H]2N1C[C@@H](NS(=O)(=O)CF)C2(F)F [Example 236, N-{(4aR,6R)-5,5-difluoro-2-[6-fluoro-4-(2,4,6-trifluorophenyl)-1,2-benzoxazol-3-yl]-1-oxooctahydropyrrolo[1,2-c]pyrimidin-6-yl}-1-fluoromethanesulfonamide] | 108% |
| CS(=O)(=O)N[C@@H]1CN2C(=O)N(c3noc4nccc(-c5c(F)cc(F)cc5F)c34)CC[C@@H]2C1(F)F [Example 237, N-{(4aR,6R)-5,5-difluoro-1-oxo-2-[4-(2,4,6-trifluorophenyl)[1,2]oxazolo[5,4-b]pyridin-3-yl]octahydropyrrolo[1,2-c]pyrimidin-6-yl}methanesulfonamide] | 110% |
